Measurements from patent US12590100B2, “Tetrahydro-spiroindoline-pyrrolopyrrole-triones inhibitors of the NRF2-β-TrCP interaction for use in the treatment of fatty liver disease” (Universidad Autonoma De Madrid, priority 2021, dated 2026).

Assays:
NRF2-regulated genes = assay: mRNA of NRF2-regulated genes in MEFs (qRT-PCR); type: cell-based, mouse; conditions: PHAR 10 μM, 8 h
Method: FIG. 4. PHAR activates the NRF2 pathway. MEFs in serum-depleted conditions were subjected to (A-C) 1 μM, 3 μM, or 10 μM of PHAR and 10 μM of SFN as a positive control for 16 h; or (D-F) 10 μM of PHAR for the indicated times. In both experiments, 0.1% DMSO was used as a vehicle. A), representative immunoblots of NRF2, HO1, KEAP1, LAMINB, and GAPDH as loading controls. B) and C), densitometric analysis of NRF2 and HO1 protein levels of the representative immunoblots depicted in (A), expressed as a ratio of NRF2/LAMINB or HO1/GAPDH. The data is depicted as means±SEM (n=3). Statistical analysis was performed with one-way ANOVA followed by the Bonferroni test to check inter-group differences. *p<0.05; ***p<0.001 vs. 0. D), representative immunoblots of NRF2, HO1, KEAP1, LAMINB, and GAPDH as loading controls. E) and F), Densitometric analysis of NRF2 and HO1 protein levels of the representative immunoblots of (D), expressed as a ratio of NRF2/LAMINB or HO1/GAPDH. The data is depicted as means±SEM (n=3). Statistical analysis was performed with one-way ANOVA followed by the Bonferroni test to check inter-group differences. *p<0.05; ***p<0.001 vs. 0. […] Luciferase activity was measured after 16 h of treatment. […] The mRNA levels of Hmox1, Nqo1, Aox1, Glc, and Gclm after 8 h of treatment were determined by means of pRT-PCR and normalized by means of average LaminB, Gapdh, and β-actin. […]

STAM mice (NAFLD) = assay: STAM fatty liver model, treatment from steatosis stage (week 6); type: in vivo, mouse
Method: FIG. 12. PHAR decreases the inflammatory response in mice subjected to fatty liver in the STAM model. The STAM model is based on the induction of non-alcoholic fatty liver (NAFLD) generated by the subcutaneous injection of streptozotocin (STZ) in neonatal C57BL/6J mice (2-5 days old) followed by a high-fat diet administered from 4 weeks of age. In this case, we treated mice in the steatosis stage (week 6), 5 days a week with an IP administration of 50 mg/kg in order to analyze if PHAR prevents progression to the next stage (NASH). A), H&E staining of liver from PHAR-treated and untreated STAM mice. Histochemical lipid staining with oil red was used to visualize the amount of liver fat. B), normalized quantification of the amount of liver fat per mouse, measured by MRI, on the last day of treatment. C), representative MRI profiles of one mouse liver of each group. The peak that appears at an approximate frequency of 4.7 ppm corresponds to the water molecule (the majority), while the rest of the peaks give information on the amount of liver fat. The ratio of the sum of the fat peaks to water indicates the total liver fat content. D), mRNA levels of several genes involved in fatty acid metabolism (Cpt1a, Scd1, Cd36 and Fasn). E), the mRNA levels of the pro-inflammatory (Tnf, Il6 and Infg) and anti-inflammatory (Il10 and Il4) cytokines were determined by qRT-PCR and were normalized by the average of Gapdh, Tbp and β-actin. Statistical analysis was performed using a Student's t test to compare the differences between PHAR-treated mice vs vehicle-treated mice. *p<0.05; **p<0.01.
As previously described, the STAM model is a murine model used for the study of non-alcoholic fatty liver disease (NAFLD), as well as for the search of new effective treatments. This model is generated by the subcutaneous injection of streptozotocin (STZ) in 2-5 day old neonatal C57BL/6J mice followed by a high-fat diet, administered after 4 weeks of age. STZ produces a pancreatic lesion that leads to the appearance of hyperglycemia that, together with the high-fat diet, gradually leads to different stages of progressive liver damage: steatosis (week 6 post-STZ injection); Inflammatory NASH (week 8); NASH fibrosis (week 10) and, finally, hepatocarcinoma (week 16). The pathogenesis of NAFLD is closely related to the appearance of reactive oxygen species, chronic low-grade inflammation, and changes in lipid metabolism. For this reason, we determined whether PHAR, as an inducer of NRF2, could attenuate the inflammatory response. Specifically, we treated mice in the steatosis stage (week 6), 5 days a week with an IP administration of 50 mg/kg in order to analyze if it prevents progression to the next stage (NASH). […] Altogether, we conclude that PHAR slows down the accumulation of fat and, therefore, prevents the appearance of NASH.

[1] = STAM mice from week 6, IP 50 mg/kg 5 days a week

O=C1[C@@H]2[C@H](Cc3c[nH]c4ccccc34)N[C@]3(C(=O)Nc4ccc(Cl)cc43)[C@@H]2C(=O)N1c1ccc2c(c1)OCCO2 [PHAR]
transcripts of Hmox1, Nqo1, Aox1, Gclc, Gclm (NRF2-regulated genes): increase in the corresponding transcripts was observed in all the cases | accumulated liver fat (oil red) (STAM mice (NAFLD); [1]): significantly decreased the amount of accumulated liver fat | liver fat quantity by MRI at the end of treatment (STAM mice (NAFLD); [1]): slows the accumulation of liver fat | expression of anti-inflammatory cytokines Il10 and Il4 (STAM mice (NAFLD); STAM mice from week 6, liver): to increase the anti-inflammatory cytokines | expression of pro-inflammatory cytokines Tnf, Il6, Infg (STAM mice (NAFLD); STAM mice from week 6, liver): tendency to decrease | fatty acid synthesis, Fasn expression (mRNA) (STAM mice (NAFLD); STAM mice from week 6, liver): decreasing of Fasn | lipid catabolism, expression of Cpt1a (mRNA) (STAM mice (NAFLD); STAM mice from week 6, liver): increase in lipid catabolism
